Where no end group is shown, it is not given here. [ ]: non-standard residue; d: D form. NMeK = CN[C@@H](CCCCN)C(=O)O
How the values were obtained:
Gαi1·GDP [1] = biological target: T1, Gαi1·GDP (Homo sapiens, UniProt P63096); experiment: TnT pulldown binding of N-methyl peptide library; set-up: made in house; host or cells: cell-free TnT coupled transcription/translation system (Promega); cDNA clone from UMR cDNA Resource Center; settings: compared with unmodified peptide
Description: Binding affinity of N-methyl peptide library: TnT pulldown experiments were carried out as described in [10] with some modifications. Human cDNA clones encoding G proteins with the pcDNA3.1+ vector (Invitrogen) were obtained from the UMR cDNA Resource Center (www.cdna.org). The DNA clones for Gαi1, and HRas were translated into 35S-Met labeled proteins using a TnT coupled transcription/translation system (Promega). Translation reactions were desalted using G-25 spin columns (GE Healthcare) and the translation yield was calculated by TCA precipitation. Equal amounts of each labeled subunit were added to (5 μL) neutravidin-agarose containing (2 nmol) pre-bound biotin labeled peptide in (1 mL) HBS-EP buffer. Control neutravidin-agarose beads were loaded with (d)-biotin (Anaspec). Binding reactions proceeded for 2 hrs at 4° C. followed by filtration and washing with HBS-EP. The matrix was analyzed by scintillation counting and the percent bound was determined by the matrix counts divided by the total counts as determined by TCA precipitation. Values were normalized to the percent bound of unmodified peptide.

Gαi1 = biological target: T2, Gαi1 (Homo sapiens, UniProt P63096); experiment: R6A-1 competition/equilibrium binding; settings: relative to unmodified peptide
T2 construct: made in house; host or cells: cell-free TnT reticulocyte lysate system (Promega), T7 promoter
T2 sequence (P63096 whole entry): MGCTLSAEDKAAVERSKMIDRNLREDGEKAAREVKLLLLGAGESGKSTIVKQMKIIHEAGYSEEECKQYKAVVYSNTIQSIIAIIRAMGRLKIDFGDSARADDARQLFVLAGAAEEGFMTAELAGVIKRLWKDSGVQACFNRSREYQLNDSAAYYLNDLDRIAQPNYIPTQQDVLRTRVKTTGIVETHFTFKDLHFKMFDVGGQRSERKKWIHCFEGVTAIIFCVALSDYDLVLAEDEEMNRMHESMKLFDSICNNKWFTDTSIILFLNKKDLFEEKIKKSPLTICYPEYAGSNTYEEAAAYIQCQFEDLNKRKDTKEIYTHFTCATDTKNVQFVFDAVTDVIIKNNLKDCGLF
Description: FIG. 2. Relative Peptide Affinities. (A) Radiolabeled Gαi1 was incubated with immobilized, biotinylated R6A and varying concentrations of either R6A (▾), unmodified peptide (▴), or N-Me-K (♦) for 3 hr. at 4° C. The radiolabel bound was normalized to that which bound in the absence of competitor. The plotted values represent the mean of three experimental values and the error bars correspond to the standard deviation. (B) Experimentally determined binding data is shown above. The error is calculated based on the standard error of the mean (SEM) for the log IC50 using GraphPad 5.0.
R6A-1 Competition/Equilibrium Binding: R6A (MSQTKRLDDQLYWWEYL) and Bio-R6A (Bio-MSQTKRLDDQLYWWEYL) were synthesized by previously described methods. This peptide was immobilized to NeutrAvidin beads (Promega) using the manufacturer's instructions. Gαi1 was expressed using the TnT reticulocyte lysate system (T7 promoter, Promega). (250 ng) plasmid DNA and (25 μCi) L-35S-Met (MP Biomedicals) were used in an (25 μL) expression. […] Specific Activity was measured by TCA precipitation.
400 pmol immobilized R6A, and (100,000 cpm) Gαi1 were suspended in (1 mL) HBS-EP buffer. Varying quantities of free peptide (R6A, Unmodified peptide, or N-Me-K) were added. […] After the final wash, the immobilized sample was transferred to scintillation vials and analyzed by scintillation counting. […]

Gαi1·GDP [2] = biological target: T1, Gαi1·GDP; settings: binding to Gαi1·GDP; literature value; cited from earlier work

T1 sequence (P63096 whole entry): as above

NNNNND[NMeK]LYWWEFL [N-Me-K]
peptide binding affinity to Gαi1·GDP (qualitative) (Gαi1·GDP [1]): increased binding affinity | ΔΔG (Gαi1; equilibrium competition with R6A): -0.50 kcal/mol | enhanced binding (fold) by equilibrium competition using the R6A peptide (Gαi1; immobilized R6A, radiolabeled Gαi1, 3 hr at 4° C.): 2.5 fold

DKLYWWEFL
Kd (Gαi1·GDP [2]): 200 nM

MSQTKRLDDQLYWWEYL [Compound R6A]
Kd (Gαi1·GDP [2]): 60 nM
